The values that follow come from patent publication US20230381139A1, “METHODS OF TREATING AND/OR PREVENTING ALZHEIMER’S DISEASE WITH R-CARVEDILOL” (priority 2020, published 2023).

One assay deals with oligomeric Aβ. The conditions noted are these: chronic treatment, animal studies; cited from earlier work.
Assay [1] has as its system ryanodine receptor (RyR2). The conditions noted are these: cited from earlier work.
The subject of another assay is 5×FAD+/− mice. The assay is described as follows: Learning and memory tests (Morris water maze, novel object recognition) in 5×FAD+/− mice. The format is in vivo, mouse. To be noted: 3.2 mg/kg/day for one month started at 2-3 months of age (before AD symptoms), tested at 3-4 months; vs DMSO. On the procedure:
(§1) Adult genetically engineered mice, 5×FAD^+/− (Oakley et al., 2006), RyR2-E4872Q^+/− (EQ^+/−) (Chen et al., 2014), 5×FAD^+/−/RyR2-E4872Q^+/− (5×FAD^+/−/EQ^+/−), and wildtype (WT) littermates of both sexes were used. R-carvedilol (R-CV) (at doses of 0.8, 1.6 or 3.2 mg/kg/day), racemic carvedilol (3.2 mg/kg/day), and vehicle control (DMSO) were delivered to 5×FAD^+/− mice in drinking water for one month, starting at different ages before (2-3 months old) or after (3-4 months old) the occurrence of AD pathologies (Oakley et al., 2006). To assess the effects of genetically and pharmacologically limiting RyR2 open time on the prevention and rescue of AD deficits in different stages (early, moderate, and late) of AD progression, animals at different ages (from 2-15 months) were used. As reported (Oakley et al., 2006), there was an age-dependence of AD progression in the 5×FAD^+/− mice. No sex-dependent differences in AD progression in these mice was observed. For 2-photon Ca^2+ imaging experiments, 5×FAD, RyR2 WT, and RyR2 mutant mice were cross-bred with the heterozygous Thy1-GCaMP6f transgenic mice (Chen et al., 2012; Chen et al., 2013) (GP5.17, JAX 025393) to express the GCaMP6f Ca^2+ sensing probe (driven by the Thy1 promotor) in hippocampal neurons in each of the genotypes used.
The learning and memory of mice with all genotypes were evaluated using the Morris water maze (MWM) test, the Barnes maze (BM) test, and/or the novel object recognition (NOR) test. Experiments were carried out blindly. For the MWM test, mice at different ages were trained to localize a hidden escape platform (10×10 cm) in a circular pool (116.84 cm in diameter, 50 cm in depth) (San Diego Instruments, CA) via distal visual cue. The platform was submerged 1-2 cm beneath the surface in water (22-24°C.), which was rendered opaque by addition of milk powder. The localization of the pool in relation to visual cues was maintained constantly during the entire task. The cues were distinct in color and shape. Digital division of the tracking area (pool) into four quadrants was performed by the SMART video tracking system, Smart 3.0 (Panlab Harvard Apparatus; Barcelona Spain). The escape platform was placed in the centre of the south-west quadrant for the entirety of the learning phase (4 training days) and digitally defined as target. Spatial training consisted of 4 days with 5 trials per mouse per day. Mice were released with their heads facing the pool wall at one of four entry locations (north, east, south and west) in a non-repetitive random order. Swimming was automatically video-tracked until the subject found the escape platform and remained on it (≥5 sec), or until a maximum of 60 seconds. […] In between trials (inter-trial interval ≥10 min), mice were housed in heated cages to avoid performance deficits due to exhaustion or hypothermia. The latency and swimming speed to reach the escape platform were recorded for comparison. After the learning phase, memory retention was evaluated by one probe trial 24 hours after the last training session. The escape platform was removed before mice were released from the north entry point into the pool. Their swimming was video-tracked for 60 seconds. The area at the location of the removed hidden platform was defined as the target and the south-west quadrant the target quadrant. The percentage of time mice spent in the target quadrant (including the target) were measured for comparison.
For the NOR test, mice were habituated for 10 min per mouse in an equally illuminated, odor-free, white, plastic box (40×40×50 cm^3) embedded with fresh aspen shavings and shreds. In between each mouse trial the box was wiped with ethanol to avoid odor-induced stress. 24 hours after habituation, two identical objects ware placed at equal distance to each other and the corners of the box. Each mouse was placed into the center, and allowed to move freely for 10 min. Mice were video recorded during this familiarizing phase. […]

For assay [2], the system named is hippocampal CA3-CA1 pathway of 5×FAD+/− mice. Nature of the assay: Long-term potentiation / fEPSP recording in hippocampal slices from treated 5×FAD+/− mice. Type of assay: in vivo, mouse. The conditions noted are these: 3.2 mg/kg/day for one month started at 2-3 months of age (before AD symptoms), slices at 3-4 months; vs DMSO. The procedure:
as §1, with “As reported (Oakley et al., 2006), there was an age-dependence of AD progression in the 5×FAD^+/− mice. No sex-dependent differences in AD progression in these mice was observed.” left out
Schaffer collateral fibers were stimulated at the CA3 subfield to record field excitatory postsynaptic potentials (fEPSPs) in the CA1 stratum radiatum of transverse hippocampal slices ([…]) from all genotypes and drug-treated mice at different ages. After recovering at room temperature for 1 h (or 2 h for brain slices from drug-treated mice), hippocampal slices were allowed to recover in the recording chamber for additional 10 min. To evaluate basal synaptic transmission, different stimulation strengths (0 μA to 200 μA in steps of 20 μA) were applied and plotted fEPSP slopes versus the current input to compare the slope of input/output (I/O) curves of fEPSP. In the experiments that followed, stimulus current was adjusted so that fEPSP stabilized at 40-50% of maximum. Baseline was recorded for at least […] until the differences among fEPSP slopes were within 10%. Long-term potentiation (LTP) was induced using a tetanic high-frequency stimulation (HFS; 4 trains of 100 pulses at 100 Hz, with 20-sec intervals). Synaptic responses were recorded for at least 60 min after tetanization and quantified as the slope of the evoked fEPSP as percentage of the baseline.

In a further assay the test system is AD. The conditions noted are these: racemic mixture at a dose of 25 mg per day, pilot clinical trial; cited from earlier work.
The test system of assay [3] is Kv4.2/KChIP4 channel complex. Nature of the assay: Whole-cell A-type K+ current recording in Kv4.2/KChIP4 transfected HEK293 cells expressing RyR2 WT. Type of assay: cell-based. The conditions noted are these: caffeine 2.5 mM, 2 min after application vs baseline. The procedure:
Previous studies used whole-cell patch clamp recordings at the soma of CA1 pyramidal cells to measure the whole-cell A-type K^+ current (Chen, 2005; Good et al., 1996; Hall et al., 2015; Scala et al., 2015). To make comparisons to earlier studies, the same approach was employed. Briefly, whole-cell A-type K^+ current (IA) was elicited by depolarizing pulses to +40 mV from a holding potential of −100 mV in the presence of 20 mM tetraethylammonium (TEA) and 100 nM tetrodotoxin (TTX). In steady-state activation experiments, membrane potential was held at −100 mV, and IA was evoked by a 200-ms depolarizing pulse from a first pulse potential of −80 mV to +80 my in 10-mV steps at 10-s intervals, Data were analyzed using the equation GK=IK/(Vm−Vrev), where GK is the membrane K^+ conductance, Vm is the membrane potential, and Vrev is the reversal potential for K^+. To study steady-state inactivation of IA, currents were elicited using 1-s conditioning pre-pulses from −110 mV to 0 mV before a 200-ms test pulse of +50 mV. After normalizing each current amplitude to the maximal current, amplitude obtained from the −110 mV pre-pulse was used as a function of the conditioning pre-pulse potential and fitted with the function IA/IA−max=1/(1+exp((Vm1/2−Vm)/k)), from which, an inactivation curve of IA was obtained, and the VH value (the voltage at which the current amplitude was half-inactivated) was calculated. The somatic whole-cell recordings provide information on the magnitude of somatic A-type K^+ current, an important determinant of somatic excitability.
For HEK293 cell experiments, HEK293 cell lines were maintained as previously described (Jiang et al., 2004) and transiently transfected with cDNAs of Kv4.2 and KChIP4 together with cDNA encoding for GFP to identify cells successfully transfected. 12-16 h before recording, tetracycline was added to culture media to induce the expression of RyR2 WI or RyR2 E4872Q mutant. IA was recorded with the same protocols as described above. Prior to IA recording, the culture medium was replaced with a bath solution (NaCl, 125 mM; KCl, 2.5 mM; HEPES, 10 mM; MgCl2, 1 mM; glucose, 10 mM; TEA, 20 mM; pH 7.4 adjusted with NaOH).

Assay [4] has as its system 5×FAD+/− CA1 pyramidal neurons. The assay is described as follows: Whole-cell patch-clamp recording of action potential firing in 5×FAD+/− CA1 pyramidal neurons in brain slices. The format is cell-based, mouse. To be noted: 10 μM, 3-4 months old 5×FAD+/− CA1 pyramidal neurons. The procedure: Acute brain slices were prepared according to the published procedures with some modifications (Ting et al., 2014; Ting et al., 2018).
For whole-cell patch-clamp recordings, slices were transferred to a submerged recording chamber perfused with carbogenated external solutions at a flow rate of 4-6 mL/min at room temperature. Action potentials (APs) were measured in hippocampal CA1 pyramidal neurons in transverse hippocampal slices (260 μm) from all genotypes of 3-4 months old mice using whole-cell patch-clamp with an […] amplifier (Axon Instruments). […] Membrane potentials in 5-6 months old or older neurons were not measured as aged neurons are difficult to patch. AP firing was recorded in an external solution (NaCl, 124 mM; KCl, 2.5 mM; NaH2PO4, 1.25 mM; NaHCO3, 24 mM; HEPES, 5 mM; glucose, 12.5 mM; MgCl2, 2 mM; and CaCl2, 2 mM; pH 7.4 adjusted with NaOH) and soft-glass recording pipettes (Sutter Instruments; Novato CA) filled with an internal solution (potassium gluconate, 135 mM, KCl, 10 mM, HEPES, 10 mM, CaCl2, 1 mM, MgCl2, 1 mM, EGTA, 10 mM, ATP, 1 mM, GTP, 0.1 mM, and pH 7.3 adjusted with KOH). […] For spontaneous AP recording, cells were hold at −70 mV and recorded for 3 min. […] For testing the Kv4 channel agonist NS5806, APs were measured before and 15 min after perfusion of 10 μM NS5806 in the external solution. […]
(In general: The patch-clamp technique gives a direct electrical read-out from membranes.)

Regarding `COc1ccccc1OCCNCC(O)COc1cccc2[nH]c3ccccc3c12` (racemic) [Racemic carvedilol, carvedilol], in the assay on oligomeric Aβ, the “content of oligomeric Aβ in the brain” value was “significantly reduced”. Also, in assay [1], the “store-overload-induced Ca2+ release” value is given as “reduces”. Further, the “memory loss / learning and memory deficits (MWM, NOR)” value with 5×FAD+/− mice is listed as “did not prevent”. For the same compound, in assay [2], the LTP impairment entry is given as “did not prevent”. Moreover, in the assay on AD, the “improvement in AD” value was “no significant improvement”.

Regarding `Cn1c(=O)c2c(ncn2C)n(C)c1=O` [Caffeine], in assay [3], the Kv4.2-mediated current result is “decreased”, the “decay time (inactivation time constant Tau) of Kv4.2-mediated current” value is on record as “decreased”, the “voltage-dependent activation of Kv4.2-mediated current” value is given as “without altering” and the “voltage-dependent inactivation of Kv4.2-mediated current” value is recorded as “without altering”.

As for `O=C(Nc1cc(C(F)(F)F)cc(C(F)(F)F)c1)Nc1c(Br)cc(Br)cc1-c1nn[nH]n1` [NS5806], the “threshold current for inducing AP firing” value in assay [4] (before vs 15 min after perfusion) was “dramatically increased”. Also, the “frequency of AP firing” value in assay [4] (current injection-triggered) is recorded as “decreased”.
